{"source": "patent US20250325526A1", "about": "“USE OF TETRAHYDRONAPHTHYRIDINE DERIVATIVE FOR PREPARING PRODUCT FOR IMPROVING HYPERPIGMENTATION” (SCINNOHUB PHARMACEUTICAL CO., LTD, priority 2022, published 2025)", "format_in_all_cases": "in vivo, SD rats", "key": {"[1]": {"test_system": "tyrosinase", "assay": "Rat melasma model: immunohistochemical staining of tyrosinase in skin", "conditions": "for tyrosinase positive rate in the skin tissues: immunohistochemistry, skin collected Day 58, vs model group, P<0.001; for tyrosinase expression in the skin tissues: vs model group, P<0.01", "text": "(§1) 3.1 Modeling: Before the experiment, on Day 0, SD rats (purchased from Beijing Vital River Experimental Animal Technology Co., Ltd., SPF grade, female, 7-8 weeks old, weighing 200±20 g) were randomly grouped and numbered. The hairs on the backs of animals in each group were shaved using an electric shaver, and the short hairs on the skin were removed with a depilatory cream to fully expose the back skin. The hair removal area was slightly larger than the actual modeling area (5 cm×5 cm). Each rat was depilated once every 2-3 days to ensure that the back skin was fully exposed. On the next day (Day 1), rats in each group were weighed, and the weights were recorded when the electronic scale reading was stable. A progesterone injection was injected intramuscularly at the base of the rat's thigh (alternately between the thighs on both sides), with a drug concentration of 20 mg/mL and an injection dose of 25 mg/kg, once a day. After the intramuscular injection, the rat's back skin was irradiated with ultraviolet light at a wavelength of 280-320 nm. The light source was about 30 cm away from the rat's back skin, and the irradiation time lasted for 60 minutes each time, for a total of 4 weeks.\nThe injection volume was 0.05 mL/cm^2, 5 days each time, and the administration lasted for 30 days continuously. The animals in the control group (only depilated, without modeling) and the model group were given the solvent.\n3.3 Detection of indicators: The first day of modeling was denoted as Day 1, and the experimental period lasted for 58 days. After the end of the experiment (Day 58), 1 hour after the last administration, the skin of the modeling area of the rats in each group was photographed for scoring of apparent indexes (scoring criteria was provided in Table 1). Then the rats in each group were euthanized, their backs were depilated, and 0.5 g of full-thickness skin tissue from the depilated back was taken and placed into an ice bath, and normal saline was added to make a 10% tissue homogenate. The homogenate was centrifuged at 3000 r/min at room temperature for 10 min to obtain a supernatant of skin tissue homogenate. ELISA was carried out to detect the expression of endothelin-1 in the supernatant of skin tissue homogenate. The skin of the modeling area on the back of rats was taken and immersed in 10% neutral formaldehyde for fixation at room temperature for 4 days. Four days later (Day 62), paraffin embedding and sectioning were performed to obtain paraffin sections of skin. The HE staining was performed to observe the pathological changes of the skin tissues of rats in each group. […]"}, "[2]": {"test_system": "melanin granules", "assay": "Rat melasma model: Fontana-Masson staining of melanin granules", "conditions": "for distribution of melanin granules: skin collected Day 58, tranexamic acid 5 mg/mL; for melanin granules in the skin tissue: skin collected Day 58, vs model group, tranexamic acid 5 mg/mL", "description": "3.3 Detection of indicators: The first day of modeling was denoted as Day 1, and the experimental period lasted for 58 days. […] Then the rats in each group were euthanized, their backs were depilated, and 0.5 g of full-thickness skin tissue from the depilated back was taken and placed into an ice bath, and normal saline was added to make a 10% tissue homogenate. The homogenate was centrifuged at 3000 r/min at room temperature for 10 min to obtain a supernatant of skin tissue homogenate. ELISA was carried out to detect the expression of endothelin-1 in the supernatant of skin tissue homogenate. The skin of the modeling area on the back of rats was taken and immersed in 10% neutral formaldehyde for fixation at room temperature for 4 days. Four days later (Day 62), paraffin embedding and sectioning were performed to obtain paraffin sections of skin. The HE staining was performed to observe the pathological changes of the skin tissues of rats in each group. Staining method: The dried paraffin sections were conventionally dewaxed with xylene, hydrated with descending gradient ethanol, and washed with distilled water; the nuclei were stained with hematoxylin for 2 minutes, differentiated with hydrochloric acid and alcohol for a few seconds, and washed with water to return to blue; the sections were stained with eosin stain for 1 minute, and the residual stain was washed with water; the sections were dehydrated and dried with gradient alcohol, transparentized with xylene, and blocked with neutral gum, then observed under microscope. The epidermal hyperplasia of the skin tissue sample sections, arrangement of basal cells, presence or absence of inflammatory cell infiltration in the dermis, and changes in the number of capillaries in all groups were observed according to the evaluation indexes. Fontana-Masson staining was performed to observe the skin pigmentation of the rats. […] An immunohistochemistrical assay was performed to detect the expression of tyrosinase in the skin in each group."}, "[3]": {"test_system": "rat models of melasma", "assay": "Rat melasma model: HE staining of skin tissues", "conditions": "vs model group, tranexamic acid 5 mg/mL, compounds under test 5 mg/mL and 1.5 mg/mL", "text": "as §1\n(§2) The injection volume was 0.05 mL/cm^2, 5 days each time, and the administration lasted for 30 days continuously. […]"}, "[4]": {"test_system": "endothelin-1", "assay": "Rat melasma model: ELISA of ET-1 in supernatant of skin tissue homogenate", "conditions": "Day 58, vs model group, P<0.01, tranexamic acid 5 mg/mL, compounds under test 5 mg/mL and 1.5 mg/mL", "text": "as §1, §2"}, "[5]": {"test_system": "rat models of melasma", "assay": "Rat melasma model (UVB irradiation + progesterone): apparent indexes, lesion color and area", "conditions": "Day 58, vs model group, P<0.05; local injection; tranexamic acid 5 mg/mL; compounds under test 5 mg/mL and 1.5 mg/mL", "text": "as §1, §2"}}, "data": [{"smiles": "Cl.O=S(=O)(O)c1ccc2c(n1)CC(CCCc1ccccc1)NC2", "note": "(centres unmarked) [compound under test 3, 7-(3-phenylpropyl)-5,6,7,8-tetrahydro-1,6-naphthyridine-2-sulfonic acid hydrochloride]", "values": [{"measurement": "tyrosinase positive rate in the skin tissues", "setting": "[1]", "value": "significantly reduced"}, {"measurement": "distribution of melanin granules", "setting": "[2]", "value": "distributed discontinuously only in the basal layer"}, {"measurement": "melanin granules in the skin tissue", "setting": "[2]", "value": "significantly reduced"}]}, {"smiles": "Cl.O=P(O)(O)c1ccc2c(n1)CCNC2", "note": "[compound under test 2, (5,6,7,8-tetrahydro-1,6-naphthyridin-2-yl)phosphonic acid hydrochloride]", "values": [{"measurement": "tyrosinase expression in the skin tissues", "setting": "[1]; 1.5 mg/mL group", "value": "significantly different from those in the model group"}, {"measurement": "tyrosinase expression in the skin tissues", "setting": "[1]; 5 mg/mL group", "value": "significantly different from those in the model group"}]}, {"smiles": "NC[C@H]1CC[C@H](C(=O)O)CC1", "note": "[tranexamic acid, Tranexamic acid]", "values": [{"measurement": "inflammatory cell infiltration", "setting": "[3]", "value": "improved"}, {"measurement": "thickness of the basal layer and stratum spinosum of the epidermal tissues", "setting": "[3]", "value": "significantly reduced"}, {"measurement": "ET-1 content in the skin tissue homogenate", "setting": "[4]", "value": "significantly reduced"}, {"measurement": "color of the lesion areas", "setting": "[5]", "value": "significantly lighter"}, {"measurement": "lesion area", "setting": "[5]", "value": "significantly reduced"}, {"measurement": "melanin granules in the skin tissue", "setting": "[2]", "value": "reduced"}]}, {"smiles": "Cl.O=C(O)c1ccc2c(n1)CCNC2", "note": "[compound under test 1, 5,6,7,8-tetrahydro-1,6-naphthyridine-2-carboxylic acid hydrochloride]", "values": [{"measurement": "tyrosinase positive rate in the skin tissues", "setting": "[1]", "value": "significantly reduced"}, {"measurement": "distribution of melanin granules", "setting": "[2]", "value": "distributed discontinuously only in the basal layer"}, {"measurement": "melanin granules in the skin tissue", "setting": "[2]", "value": "significantly reduced"}]}]}
